The record followed here is patent US10077236B2, “Azacyclic constrained analogs of FTY720” (The Regents of the University of California, priority 2013, dated 2018).

In one data set the test system is Nalm-6 Ph- ALL cell line. Description: Cell viability assay, Nalm-6. It is filed as cell-based, human. The note with it: 72 h, vital dye exclusion and flow cytometry, read-out: Mean IC50 (+/- SEM) in cell viability assay, Nalm-6 Ph- ALL. From the text: (§1) Leukemia cell assays: Effects of chemical changes on ability to kill cells as observed in cell viability assays using the BCR-ABL positive human acute lymphoblastic leukemia (ALL) cell line, Sup-B15 are described. Assays using the Sup-B15 cell line were designed to determine efficacy of azacyclic constrained small molecule analogs of FTY720 in killing leukemia cells. Analogs were generated using the synthesis methods mentioned above. Sup-B15 cells were maintained at 2-3 million/mL in RPMI 1640 (by Mediatech™) supplemented with 10% fetal calf serum (by Sigma-Aldrich™), 10 mM Hepes (by Mediatech™), 55 μM β-mercaptoethanol (by Sigma-Aldrich™), 2 mM L-glutamine (by Mediatech™), and antibiotics. BV173, Nalm-6, and Blin-1 were maintained at 1-2 million/mL and CCRF-CEM at less than 500,000/mL in the same medium. BMp190 cells were created by transducing murine bone marrow cells with pMIC-p190 which expresses the p190 isoform of BCR-Abl and human CD4 from an IRES; these cells were kept at 1-2 million/mL in RPMI supplemented as above.
(§2) Flow cytometry: Much of the biological activity presented is shown through flow cytometry data. […] Here, IC50 flow cytometry assays were used. In them, viability was determined at 72 hours by vital dye exclusion [propium iodide or DAPI (4′,6-diamindino-2-phenylindole)]. To measure nutrient receptor expression following exposure to FTY720 and azacyclic constrained analogs of FTY720, surface 4F2hc expression was measured after 3 hours of drug treatment by staining 150,000 cells with phycoerythrin-conjugated mouse anti-human CD98 (by BD Biosciences™). Analysis was restricted to viable cells.
(§3) All samples for the disclosed sets of data were analyzed on a BD LSR II flow cytometer and data analyzed with FlowJo™ software (by Treestar™). IC50's were calculated and statistical tests were performed using GraphPad Prism™.
In general terms: Flow cytometry measures light scatter and fluorescence of single cells or particles in a stream.

In data set [1] the test system is DU145 prostate cancer cell line. The data set can be described thus: Cell viability assay, DU145. It is filed as cell-based, human. To be noted: 72 h, vital dye exclusion and flow cytometry, read-out: Mean IC50 (+/- SEM) in cell viability assay, DU145 prostate. The protocol: as §2, with “In them, viability was determined at 72 hours by vital dye exclusion [propium iodide or DAPI (4′,6-diamindino-2-phenylindole)].” left out, “cells. All samples for the disclosed sets of data were analyzed on a BD LSR II flow cytometer and data analyzed with FlowJo™ software (by Treestar™). IC50's were calculated and statistical tests were performed using GraphPad Prism™.” for “cells.”

Data set [2] relates to Sup-B15 BCR-ABL positive human acute lymphoblastic leukemia (ALL) cell line. Description: Cell viability assay, Sup-B15 leukemia cells (flow cytometry, vital dye exclusion). It is filed as cell-based. The note with it: for IC50: 72 h, vital dye exclusion and flow cytometry, read-out: Mean IC50 (+/- SEM) in cell viability assay, SupB15 Ph+ ALL; for ability to kill leukemia cells, potency compared in words: Sup-B15 cell viability assays.
Text: as §1, §2, §3

The next data set relates to Blin-1 Ph- ALL cell line. Description: Cell viability assay, Blin-1. It is filed as cell-based, human. To be noted: 72 h, vital dye exclusion and flow cytometry, read-out: Mean IC50 (+/- SEM) in cell viability assay, Blin-1 Ph- ALL.
Text: as §1, §2, §3

Data set [3] has as its system CCRF-CEM Ph- ALL cell line. The data set can be described thus: Cell viability assay, CCRF-CEM. The note with it: 72 h, vital dye exclusion and flow cytometry, read-out: Mean IC50 (+/- SEM) in cell viability assay, CCRF-CEM Ph- ALL. In kind it is cell-based, human.
Text: as §1, §2, §3

The test system of data set [4] is BMp190 cells (murine bone marrow transduced with BCR-Abl p190). Description: Cell viability assay, BCR-Abl p190-expressing murine bone marrow (BM-p190). The note with it: 72 h, vital dye exclusion and flow cytometry, read-out: Mean IC50 (+/- SEM) in cell viability assay, BM-p190. It is filed as cell-based.
Text: as §1, §2, §3

In data set [5] the test system is PC3 prostate cancer cell line. Description: Cell viability assay, PC3. It is filed as cell-based, human. To be noted: 72 h, vital dye exclusion and flow cytometry, read-out: Mean IC50 (+/- SEM) in cell viability assay, PC3 prostate. The protocol: as §2, with “In them, viability was determined at 72 hours by vital dye exclusion [propium iodide or DAPI (4′,6-diamindino-2-phenylindole)].” left out, “cells. All samples for the disclosed sets of data were analyzed on a BD LSR II flow cytometer and data analyzed with FlowJo™ software (by Treestar™). IC50's were calculated and statistical tests were performed using GraphPad Prism™.” for “cells.”

The subject of the next data set is BV173 Ph+ ALL cell line. The data set can be described thus: Cell viability assay, BV173. In kind it is cell-based, human. The note with it: 72 h, vital dye exclusion and flow cytometry, read-out: Mean IC50 (+/- SEM) in cell viability assay, BV173 Ph+ ALL.
Text: as §1, §2, §3

In the next data set the target is T1, sphingosine kinase 2 (Mus musculus, UniProt Q9JIA7).
T1 construct: endogenous in cells
T1 sequence (Q9JIA7 1-617): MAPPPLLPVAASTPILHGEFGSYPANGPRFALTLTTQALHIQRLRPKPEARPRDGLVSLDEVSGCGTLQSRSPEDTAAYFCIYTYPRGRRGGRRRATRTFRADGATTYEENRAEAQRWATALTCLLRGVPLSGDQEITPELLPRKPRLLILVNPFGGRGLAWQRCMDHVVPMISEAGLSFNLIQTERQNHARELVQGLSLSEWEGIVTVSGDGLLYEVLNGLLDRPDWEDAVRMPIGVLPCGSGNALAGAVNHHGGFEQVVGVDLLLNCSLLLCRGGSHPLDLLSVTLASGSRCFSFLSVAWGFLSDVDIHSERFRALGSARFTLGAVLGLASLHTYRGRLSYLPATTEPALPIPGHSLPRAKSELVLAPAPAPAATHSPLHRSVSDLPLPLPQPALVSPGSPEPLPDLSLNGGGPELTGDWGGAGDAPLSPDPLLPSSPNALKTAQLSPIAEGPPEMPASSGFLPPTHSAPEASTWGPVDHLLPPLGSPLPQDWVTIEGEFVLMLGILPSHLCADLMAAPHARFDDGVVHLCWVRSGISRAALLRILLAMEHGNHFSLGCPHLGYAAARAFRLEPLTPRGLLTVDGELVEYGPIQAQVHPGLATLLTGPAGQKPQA
The data set can be described thus: Phosphorylation by sphingosine kinase 2 in cells. In kind it is cell-based. The protocol:
The importance of phosphorylation in the activity of compound 6 was then examined. In this study MEF knockout lines that show the same differential sensitivity to compound 6 relative to its enantiomers as leukemia cells were used (FIG. 10h). […] A phosphate and a non-phosphorylatable analog of compound 6 were then tested.

In the next data set the test system is circulating lymphocytes. The data set can be described thus: Lymphocyte sequestration (circulating lymphocytes). It is filed as in vivo, mouse. The note with it: number of circulating lymphocytes 12 h after dosage. From the text:
(§4) As previously discussed, FTY720 itself cannot be used in cancer patients because phosphorylation of FTY720 by SphKs makes FTY720-P, which acts at S1P receptors to cause bradycardia and immunosuppression (on-target effect for primary use).

The nature of data set [6]: Mouse heart rate by telemetry. It is filed as in vivo. The note with it: telemetry for 24 h after administration of anti-cancer dose.
Text: as §4

Molecules are shown by their SMILES. Where two headings read alike, the source gives them in different places.

Regarding `CCCCCCCCc1ccc(CO[C@H]2CN[C@H](CO)C2)cc1.Cl` [Compound 5], the IC50 turned out to be 15 ± 2.1 µM with Nalm-6 Ph- ALL cell line; 10.8 ± 0.4 µM in [1]; 7.7 ± 0.8 µM in data set [2]; 7.5 ± 0.1 µM in the data set with Blin-1 Ph- ALL cell line; 11 ± 1.3 µM in data set [3]; 5.7 ± 1.1 µM in data set [4]. Moreover, the figures for the IC50 (in [5]; with BV173 Ph+ ALL cell line) were 14.3 ± 1.2 µM and 10.4 ± 0.7 µM, respectively. For the same compound, the “phosphorylation by sphingosine kinase 2 in cells” value at sphingosine kinase 2 is on record as “phosphorylated by sphingosine kinase 2 in cells”.
On to `CCCCCCCCc1ccc(CO[C@H]2CN[C@H](C)C2)cc1.Cl` [Compound 13], for which the “ability to kill leukemia cells, potency compared in words” value (shortened to “ability … compared in words”) in [2] was “no detectable effect on the potency”.
As for `CCCCCCCCc1ccc(CO[C@@H]2CN[C@@H](C)C2)cc1.Cl` [Compound 14], in data set [2], the “ability … compared in words” value is given as “decreased the activity”.
For `CCCCCCCCc1ccc(CO[C@@H]2CN[C@@H](COC)C2)cc1.Cl` [Compound 15, (2R,4S)-2-(methoxymethyl)-4-((4-octylbenzyl)oxy)-pyrrolidine hydrochloride salt], the “ability … compared in words” value in [2] (hydrochloride salt) was “reduced the potency”.
For the compound `CCCCCCCCc1ccc(COC2CCNC2)cc1.Cl` (centres unmarked) [Compound 16], the “ability … compared in words” value in [2] is “only a marginal effect on activity”.
With `CCCCCCCCc1ccc(CCC(N)(CO)CO)cc1.Cl` [FTY720, 2-Amino-2-[2-(4-octylphenyl)ethyl]propane 1,3-diol hydrochloride], the IC50 in the data set with Nalm-6 Ph- ALL cell line (Homo sapiens, NALM-6) was 9.6 ± 1.9 µM; in [1] (Homo sapiens, DU-145) it was 6.5 ± 0.9 µM; in data set [2] (Homo sapiens, SUP-B15), 6.8 ± 0.7 µM; in the data set on Blin-1 Ph- ALL cell line (Homo sapiens), 5.5 ± 0.1 µM; in data set [3] (Homo sapiens, CCRF-CEM), 6.8 ± 0.3 µM; in data set [4] (Mus musculus), 3.3 ± 0.2 µM. Moreover, the IC50 in data set [5] (Homo sapiens) turned out to be 9.8 ± 0.9 µM; with BV173 Ph+ ALL cell line (Homo sapiens, BV-173) it was 6.3 ± 0.4 µM. Further, the “lymphocyte sequestration / immunosuppression” value in the data set on circulating lymphocytes is recorded as “causes lymphocyte sequestration”. In addition, the “effect on heart rate” value in [6] was “dramatic drop in heart rate”.
